Reference: patent US5317019A, “Inhibition of interleukin-1 and tumor necrosis factor production by monocytes and/or macrophages” (priority 1991, dated 1994)

Experiments:
[1] = system: cyclooxygenase; settings: literature (Lee et al.); cited from earlier work
[2] = system: arachidonic acid-induced inflammation; settings: literature (Griswold et al.); cited from earlier work
[3] = system: 5-lipoxygenase; settings: literature (Lee et al.); cited from earlier work
[4] = system: IL-1 production by human monocytes; settings: literature (Lee et al.); in words; cited from earlier work
[5] = system: IL-1 production by human monocytes; test: In vitro IL-1 production by LPS-stimulated human monocytes; format: cell-based; settings: Homo sapiens, Monocyte; Table 1; LPS 50 ng/ml, 24 h; read-out: IC50, effect on LPS-stimulated IL-1 production by human monocytes
Description: Bacterial lipopolysaccharide (LPS) was used to induce IL-1 production by human peripheral blood monocytes. IL-1 activity was measured by its ability to stimulate a Interleukin 2 (IL-2) producing cell line […] to secrete IL-2, in concert with A23187 ionophore, according to the method of Simon et al., J. Immunol. […] The cells were allowed to adhere for 2 hours, after which time non-adherent cells were removed by gentle washing. […] At the end of the incubation period, culture supernatants were removed and clarified of cells and all debris.

[6] = system: TNF production by human monocytes; test: In vitro TNF production by LPS-stimulated human monocytes (ELISA); format: cell-based; settings: Homo sapiens, Monocyte; Table B; LPS 50 ng/ml, 24 h; read-out: IC50, LPS induced TNF human monocyte data
Description: The effects of the compounds enumerated above on the in vitro production of TNF by human monocytes was examined using the following protocol.
Bacterial lipopolysaccharide (LPS) was used to induce TNF production by human peripheral blood monocytes. TNF activity was measured by a modification of Winston et al., ELISA, described below. […] The cells were allowed to adhere for 2 hours, after which time non-adherent cells were removed by gentle washing. […] At the end of the incubation period, culture supernatants were removed and clarified of cells and all debris. Culture supernatants were immediately assayed for TNF levels in the manner described below.
The Elisa employes a murine monoclonal anti-human TNF antibody, described below, as the capture antibody and a polyclonal rabbit anti-human TNF, described below, as the second antibody. […] TNF levels in samples were calculated from a standard curve genereated with recombinant human TNF produced in E. Coli (obtained from SmithKIine Beecham Pharmaceuticals, King of Prussia, Pa., USA).
Polyclonal rabbit anti-human TNF antibodies were prepared by repeated immunization of New Zeland White (NZW) rabbits with recombinant human TNF emulsified in complete Freund's adjuvant (DEFCO, Ill., USA).

[7] = system: arachidonic acid-induced mouse ear swelling; test: Arachidonic acid-induced mouse ear swelling (p.o.); format: in vivo; settings: 50 mg/kg p.o.; *** p less than 0.001
Description: ^a Mouse ear edema was measured as described in Griswold et al.,
Inflammation, II(2), 189-199 (1987), the disclosure of which is hereby
incorporated by reference.

[8] = system: endotoxin shock in D-gal-sensitized mice; test: LPS-GAL endotoxin shock model (D-gal-sensitized mice); format: in vivo, mouse (C57BL/6)
Text: (§1) Two models of endotoxin shock have been utilized to determine in vivo TNF activity and are described below. The actual protocol used in the models is described in Utility Model Examples A and B set out below, i.e. P. acnes model and LPS-GAL model.
Endotoxin Shock in D-gal-Sensitized Mice
The protocol used to test the compound of the method of the subject invention was essentially as has been described in Galanos et al., Proc. Nat'l Acad. Sci USA, 76:5939-43 (1979) whose disclosure is herein incorporated by reference. Briefly, D-gal […] sensitizes various strains of mice to the lethal effects of endotoxin. The administration of D-gal (300-500 mg/kg) intravenously (i.v.) sensitizes the mice to doses of Lipopolysaccharide(LPS ) as low as 0.1 mg. […]
Plasma levels of TNF were measured using a modification of the basic sandwich ELISA method described in Winston et al., Current Protocols in Molecular Biology, Pg. […] TNF levels in rat samples were calculated from a standard curve generated with recombinant murine TNF (Genzyme, Boston, Mass., USA). TNF levels determined by ELISA correlated with levels detected by the L929 bioassay of Ruff et. al., J. Immunol. […] The ELISA detected levels of TNF down to 25 pg/ml.

[9] = system: endotoxin shock in mice; test: In vivo endotoxin shock models (P. acnes and/or LPS-GAL); design: species or system mouse (C57BL/6); settings: one or both in vivo models
Text: as §1
The protocol used to test the compound of the method of the subject invention was essentially as has been described in Galanos et al., Proc. Nat'l Acad. Sci USA, 76:5939-43 (1979) whose disclosure is herein incorporated by reference. Briefly, D-gal […] sensitizes various strains of mice to the lethal effects of endotoxin. The administration of D-gal (300-500 mg/kg) intravenously (i.v.) sensitizes the mice to doses of Lipopolysaccharide(LPS ) as low as 0.1 mg. Briefly, male C57BL/6 mice, obtained from Charles River Laboratories (Stone Ridge, N.Y., USA) of 6-12 weeks of age were injected i.v. with 0.1 mg of LPS from Salmonella typhosa (Difco Laboratories, Detroit, Mich., USA) admixed with D(+)-gal (Sigma; 500 mg/kg) in 0.20-0.25 ml pyrogen-free saline. Compounds to be tested were administered at various times prior to or following the i.v. injection of LPS/D-gal. In this model, the control animals usually die 5-6 hr. following the injection of LPS, although on occasion deaths are seen between 24 and 48 hr.
(§2) This model is a modification of the previously described protocol for the in vivo induction of TNF as described in Haranaka et al., Cancer Immunol Immunother. 18:81-90, (1984). Treatment with Proprionibacterium Acnes (P. acnes) (1 mg/animal i.p.) renders mice susceptible to the lethal effects of LPS injected 10 days later.
(§3) P. acnes was purchased from Burroughs Wellcome (Triangle Park, N.C., USA), and […] of the heat-killed bacteria was administered in 0.5 ml pyrogen-free saline by intraperitoneal (i.p.) injection to male C57BL/6 mice, obtained from Charles River Laboratories (Stone Ridge, N.Y., USA) of 6-12 weeks of age. Ten days later, the mice were injected i.v. with 1 mg LPS in 0.25 ml saline. Compounds to be tested were administered at various times prior to or following the injection of LPS. The survival of animals was monitored for 1 week.
Plasma levels of TNF were measured using a modification of the basic sandwich ELISA method described in Winston et al., Current Protocols in Molecular Biology, Pg. 11.2.1, Ausubel et al., Ed. (1987) John Wiley and Sons, New York, USA. The Elisa employed a hampster monoclonal anti-mouse TNF (Genzyme, Boston, Mass., USA ) as the capture antibody and a polyclonal rabbit anti-murine TNF (Genzyme, Boston, Mass., USA ) as the detecting antibody. TNF levels in rat samples were calculated from a standard curve generated with recombinant murine TNF (Genzyme, Boston, Mass., USA). TNF levels determined by ELISA correlated with levels detected by the L929 bioassay of Ruff et. al., J. Immunol. 125:1671-1677 (1980), with 1 Unit of activity in the bioassay corresponding to 70 picograms (pg) of TNF in the ELISA. The ELISA detected levels of TNF down to 25 pg/ml.

[10] = system: serum TNF in P. acnes-sensitized mice; test: P. acnes/LPS endotoxin shock model, serum TNF; format: in vivo, mouse (C57BL/6); settings: P. acnes/LPS treated mice, oral dosage, FIG. 1
Text: as §1
Endotoxin Shock in P. acnes-Sensitized Mice
as §2
as §3, with “Ten days later, the mice were injected i.v. with 1 mg LPS in 0.25 ml saline. Compounds to be tested were administered at various times prior to or following the injection of LPS.” left out
Plasma levels of TNF were measured using a modification of the basic sandwich ELISA method described in Winston et al., Current Protocols in Molecular Biology, Pg. […] TNF levels in rat samples were calculated from a standard curve generated with recombinant murine TNF (Genzyme, Boston, Mass., USA). TNF levels determined by ELISA correlated with levels detected by the L929 bioassay of Ruff et. al., J. Immunol. […]

Structure (SMILES)	IC50 [5] [µM]	IC50 [6] [µM]	Percent inhibition of arachidonic acid-induced mouse ear swelling [7] [%]	Inhibition of in vivo TNF levels / in vivo activity [9]	Protection from lethal effects of endotoxin shock [9]	also measured
Fc1ccc(-c2nc3n(c2-c2ccncc2)CCS3)cc1 [5-(4-pyridyl)-6(4-fluorophenyl)-2,3-dihydroimidazo(2,1-b)thiazole]						Inhibition of cyclooxygenase-mediated arachidonate metabolism [1]: inhibits; Effects on the edematous and cellular component of arachidonic acid-induced inflammation [2]: inhibitory effects; Inhibition of 5-lipoxygenase-mediated arachidonate metabolism [3]: inhibits; Inhibition of IL-1 production by LPS-stimulated human monocytes [4]: potent inhibitor of IL-1 production
CSc1ccc(-c2nc3n(c2-c2ccncc2)CCC3)cc1 [Compound 1, 2-(4-methylthiophenyl)-3-(4-pyridyl)-6,7-dihydro-[5H]-pyrrolo-[1,2-a-]-imidazole]	2	1	56			
C[S+]([O-])c1ccc(-c2nc3n(c2-c2ccncc2)CCC3)cc1 (stereo not drawn) [Compound 2, 2-(4-methylsulfinylphenyl)-3-(4-pyridyl)-6,7-dihydro-[5H]-pyrrolo-[1,2-a]-imidazole]	> 10	> 10	44	in vivo activity	protection from the lethal effects of endotoxin shock	Reduction of serum TNF levels ([8]; 100 mg/kg, FIG. 3): reduction of serum TNF levels; Survival rate of animals with endotoxic shock ([8]; FIG. 4, control group 30%): 100%; Reduction in serum / in vivo TNF levels [10]: decreased levels of in vivo TNF relative to increased oral dosage
CCSc1ccc(-c2nc3n(c2-c2ccncc2)CCC3)cc1 [Compound 3]	2		56			
CC[S+]([O-])c1ccc(-c2nc3n(c2-c2ccncc2)CCC3)cc1 (stereo not drawn) [Compound 4]	> 10	7	41	inhibited in vivo TNF levels	protected the animals from endotoxic induced shock	
CSc1ccc(-c2nc3n(c2-c2ccnc(C)c2)CCC3)cc1 [Compound 5, 2-(4-methylthiophenyl)-3-(4-(2-methyl)pyridyl)-6,7-dihydro-[5H]-pyrrolo-[1,2-a-]-imidazole]	2.7	7	59	inhibited in vivo TNF levels	protected the animals from endotoxic induced shock	
Cc1cc(-c2c(-c3ccc([S+](C)[O-])cc3)nc3n2CCC3)ccn1 (stereo not drawn) [Compound 6, 2-(4-methylsulfinylphenyl)-3-(4-(2-methyl)-pyridyl)-6,7-dihydro-[5H]-pyrrolo-[1,2-a]-imidazole]	> 10		59			
CC(Cc1ccc(O)c(O)c1)C(C)Cc1ccc(O)c(O)c1 (stereo not drawn) [nordihydroguaiaretic acid]						Inhibition of IL-1 production by LPS-stimulated human monocytes [4]: with the exception of nordihydroguaiaretic acid, were inactive
